Reference: patent US12064426B2, “Selective inhibitors of ROCK1 and ROCK2 protein kinases and uses thereof” (GENOSCO Inc., priority 2021, dated 2024)

Columns and labels:
[1] = molecular target: T1, Recombinant ROCK1 (amino acids 1-477) (Homo sapiens, UniProt Q13464); assay: ROCK inhibition assay, LANCE Ultra TR-FRET kinase assay (ROCK1); assay type: biochemical; details: 1 μM ATP, 50 nM ULight-CREBtide substrate
T1 construct: Recombinant ROCK1 (amino acids 1-477); by word order, ROCK1 from Carna Biosciences
Procedure, shortened: (§1)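 LANCE Ultra TR-FRET kinase assay with recombinant ROCK1 (aa 1-477) or ROCK2 (aa 5-554), 50 nM ULight-CREBtide and ATP at 1 μM (ROCK1) or 4 μM (ROCK2) in HEPES pH 7.5 with MgCl2, 1 h at room temperature. EDTA stop with Eu anti-phospho-CREB Ser133 antibody; 665/615 nm read gives IC50.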

[2] = molecular target: T2, Recombinant ROCK2 (amino acids 5-554) (Homo sapiens, UniProt O75116); assay: ROCK inhibition assay, LANCE Ultra TR-FRET kinase assay (ROCK2); assay type: biochemical; details: 4 μM ATP, 50 nM ULight-CREBtide substrate
T2 construct: ROCK2 (amino acids 5-554); by word order, ROCK2 from SignalChem
Procedure, shortened: as §1

T1 sequence (Q13464 1-477): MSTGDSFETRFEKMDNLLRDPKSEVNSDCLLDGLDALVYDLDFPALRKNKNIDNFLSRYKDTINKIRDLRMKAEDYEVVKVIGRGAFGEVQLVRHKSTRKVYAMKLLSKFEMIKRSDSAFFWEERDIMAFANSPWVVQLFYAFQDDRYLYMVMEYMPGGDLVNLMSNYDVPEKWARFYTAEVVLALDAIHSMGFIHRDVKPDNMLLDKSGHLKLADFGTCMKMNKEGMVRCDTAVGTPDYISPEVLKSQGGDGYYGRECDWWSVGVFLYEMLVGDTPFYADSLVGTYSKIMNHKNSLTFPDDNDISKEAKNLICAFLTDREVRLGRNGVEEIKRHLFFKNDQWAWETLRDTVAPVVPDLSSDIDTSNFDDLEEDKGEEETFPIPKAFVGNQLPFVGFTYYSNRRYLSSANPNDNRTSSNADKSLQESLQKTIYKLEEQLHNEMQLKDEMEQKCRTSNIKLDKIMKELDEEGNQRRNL
T2 sequence (O75116 5-554): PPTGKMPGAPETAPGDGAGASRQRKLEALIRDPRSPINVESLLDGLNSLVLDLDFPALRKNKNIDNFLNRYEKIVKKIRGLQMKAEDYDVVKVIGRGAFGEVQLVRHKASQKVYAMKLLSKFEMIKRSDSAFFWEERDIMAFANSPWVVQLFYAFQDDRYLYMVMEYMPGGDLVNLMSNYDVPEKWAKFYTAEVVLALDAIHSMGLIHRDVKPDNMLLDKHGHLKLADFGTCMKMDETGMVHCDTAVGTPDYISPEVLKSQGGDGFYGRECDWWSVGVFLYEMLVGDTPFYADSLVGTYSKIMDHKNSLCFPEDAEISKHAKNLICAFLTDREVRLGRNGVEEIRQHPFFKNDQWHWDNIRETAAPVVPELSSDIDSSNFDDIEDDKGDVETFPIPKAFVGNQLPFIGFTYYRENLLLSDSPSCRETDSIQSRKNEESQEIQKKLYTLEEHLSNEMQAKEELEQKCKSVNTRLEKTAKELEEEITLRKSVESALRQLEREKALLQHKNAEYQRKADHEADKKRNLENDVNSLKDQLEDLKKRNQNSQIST

Row | IC50 [1] | IC50 [2] | SMILES
1 | 11 to 100 nM | < 10 nM | CN1CCN(CCNC(=O)c2cc(F)cc(Cn3ccc4cc(-c5ccnn5C)ncc4c3=O)c2)CC1 [Compound 268]
2 | 101 to 500 nM | 10 to 100 nM | Cn1nccc1-c1cc2ccn(Cc3cc(F)cc(C(=O)NCC4COC4)c3)c(=O)c2cn1 [Compound 269]
3 | 11 to 100 nM | 10 to 100 nM | Cn1nccc1-c1cc2ccn(Cc3cc(F)cc(C(=O)NCC4CCOCC4)c3)c(=O)c2cn1 [Compound 270]
4 | < 10 nM | < 10 nM | Cn1nccc1-c1cc2ccn(Cc3cc(F)cc(C(=O)NCCc4cccnc4)c3)c(=O)c2cn1 [Compound 271]
5 | < 10 nM | < 10 nM | CC(C)NC(=O)c1cc(F)cc(Cn2ccc3cc(-c4c[nH]nc4Br)ncc3c2=O)c1 [Compound 272]
6 | < 10 nM | < 10 nM | CN1CCC(CNC(=O)c2cc(F)cc(Cn3ccc4cc(-c5c[nH]nc5Br)ncc4c3=O)c2)CC1 [Compound 273]
7 | < 10 nM | < 10 nM | CN1CCC(CNC(=O)c2cc(F)cc(Cn3ccc4cc(-c5c[nH]nc5C(F)F)ncc4c3=O)c2)CC1 [Compound 274]
8 | 11 to 100 nM | < 10 nM | O=C(N[C@H]1CC[C@@H](O)CC1)c1cc(F)cc(Cn2ccc3cc(-c4c[nH]nc4C(F)F)ncc3c2=O)c1 [Compound 275]

Further lines, the compound ahead of its results:

Row | SMILES | IC50 [1] | IC50 [2]
9 | CNC(=O)c1cc(F)cc(Cn2ccc3cc(-c4ccnc(N)c4)ncc3c2=O)c1 [Compound 251] | 101 to 500 nM | 10 to 100 nM
10 | CNC(=O)c1cc(F)cc(Cn2ccc3cc(-c4c[nH]nc4C(F)F)ncc3c2=O)c1 [Compound 252] | 11 to 100 nM | < 10 nM
11 | Cc1n[nH]cc1-c1cc2ccn(Cc3cc(F)cc(C(=O)NC4CCOCC4)c3)c(=O)c2cn1 [Compound 253] | 11 to 100 nM | < 10 nM
12 | CCNC(=O)c1cc(F)cc(Cn2ccc3cc(-c4c[nH]nc4C)ncc3c2=O)c1 [Compound 254] | 11 to 100 nM | < 10 nM
13 | Cc1n[nH]cc1-c1cc2ccn(Cc3cc(F)cc(C(=O)NCC4CCN(C)CC4)c3)c(=O)c2cn1 [Compound 256] | < 10 nM | < 10 nM
14 | CN1CCC(CNC(=O)c2cc(F)cc(Cn3ccc4cc(-c5c[nH]nc5C(F)(F)F)ncc4c3=O)c2)CC1 [Compound 257] | < 10 nM | < 10 nM
15 | O=C(NCC1COC1)c1cc(F)cc(Cn2ccc3cc(-c4c[nH]nc4C(F)(F)F)ncc3c2=O)c1 [Compound 258] | 11 to 100 nM | < 10 nM
16 | CN1CCC(NC(=O)c2cc(F)cc(Cn3ccc4cc(-c5c[nH]nc5C(F)(F)F)ncc4c3=O)c2)CC1 [Compound 259] | 11 to 100 nM | < 10 nM
17 | O=C(N[C@H]1CC[C@H](O)CC1)c1cc(F)cc(Cn2ccc3cc(-c4c[nH]nc4C(F)(F)F)ncc3c2=O)c1 [Compound 260] | 11 to 100 nM | < 10 nM
18 | CN1CCC(NC(=O)c2cc(F)cc(Cn3ccc4cc(-c5c[nH]nc5Cl)ncc4c3=O)c2)CC1 [Compound 261] | < 10 nM | < 10 nM
19 | O=C(N[C@H]1CC[C@@H](O)CC1)c1cc(F)cc(Cn2ccc3cc(-c4c[nH]nc4Cl)ncc3c2=O)c1 [Compound 262] | < 10 nM | < 10 nM
20 | O=C(N[C@H]1CC[C@H](O)CC1)c1cc(F)cc(Cn2ccc3cc(-c4c[nH]nc4Cl)ncc3c2=O)c1 [Compound 263] | 11 to 100 nM | < 10 nM
21 | CC(C)NC(=O)c1cc(F)cc(Cn2ccc3cc(-c4c[nH]nc4Cl)ncc3c2=O)c1 [Compound 264] | 11 to 100 nM | < 10 nM
22 | Cc1nocc1-c1cc2ccn(Cc3cc(F)cc(C(=O)NCC4CCN(C)CC4)c3)c(=O)c2cn1 [Compound 265] | 11 to 100 nM | < 10 nM
23 | Cc1nocc1-c1cc2ccn(Cc3cc(F)cc(C(=O)NCC4CCOCC4)c3)c(=O)c2cn1 [Compound 266] | 11 to 100 nM | < 10 nM
24 | Cc1nocc1-c1cc2ccn(Cc3cc(F)cc(C(=O)NCCN4CCOCC4)c3)c(=O)c2cn1 [Compound 267] | 11 to 100 nM | < 10 nM
